From patent publication US8846928B2 (Portola Pharmaceuticals, Inc., priority 2010, dated 2014)

The molecules below were run against T1, full length active recombinant SYK enzyme (Homo sapiens, UniProt P43405) (assay: Inhibition of Syk tyrosine phosphorylation activity (LANCE TR-FRET kinase assay)).
T1 construct: full length active recombinant SYK enzyme (Millipore, Calif.); purchased Millipore
Format: biochemical
Description: Inhibition of Syk Tyrosine Phosphorylation Activity
Potency of candidate molecules for inhibiting Syk tyrosine phosphorylation activity is assessed by measuring the ability of a test compound to inhibit Syk-mediated tyrosine phosphorylation of a Syk-specific substrate.
SYK tyrosine phosphorylation activity is measured using the LANCE™ Technology developed by Perkin Elmer Life and Analytical Sciences (Boston, Mass.). LANCE™ refers to homogeneous time resolved fluorometry applications using techniques such as time-resolved fluorescence resonance energy transfer assay (TR-FRET) (see generally for procedures in Perkin Elmer Application Note—How to Optimize a Tyrosine Kinase Assay Using Time Resolved Fluorescence-Based LANCE Detection, wwww.perkinelmer.com/lifesciences). The assay principle involves detection of a phosphorylated substrate using energy transfer from a phosphospecific europium-labeled antibody to streptavidin-allophycocyanin as an acceptor.
To test the ability of candidate molecules to inhibit SYK tyrosine phosphorylation activity, molecules are reconstituted in 30% DMSO and serially diluted 1:3 with the final dilution containing DMSO in the absence of the candidate molecule. The final DMSO concentration in the assay is 3%. Kinase assays are performed as a two part reaction. […] The second reaction involves termination of the kinase reaction and the simultaneous addition of the detection reagents—europium-labeled anti-phosphotyrosine reagent (Eu-W1024-PY100, Perkin Elmer, Boston, Mass.) and Streptavidin-Allophycocyanin detection reagent (SA-APC, Prozyme, Calif.). The kinase reaction is performed in a black U-bottom 96-well microtitre plate. The final reaction volume is 50 μL and contains a final concentration of 1 nM active SYK enzyme, 550 nM SYK-substrate, and 100 μM ATP diluted in a buffer containing 50 mM Tris pH 7.5, 5 mM MgCl2, and 1 mM DTT. The reaction is allowed to proceed for 1 hour at room temperature. The quench buffer contains 100 mM Tris pH 7.5, 300 mM NaCl2, 20 mM EDTA, 0.02% Brij35, and 0.5% BSA. The detection reagents are added to the reaction mixture at the following dilutions-1:500 for Eu-W1024-PY100 and 1:250 for SA-APC. The kinase reaction is terminated by the addition of 50 μL quench buffer containing the detection reagents. The detection is allowed to proceed for 1 hr at room temperature. Detection of the phosphorylated substrate in the absence and presence of inhibitors is measured in the TR-FRET instrument, Analyst HT (Molecular Probes, Sunnyvale, Calif.) and the condition for measurements are set up using CriterionHost Release 2.0 (Molecular Probes, Sunnyvale, Calif.). The settings used are a follows: excitation 360 nm, emission 665-7.5 nm, beam splitter 350 nm 50/50, flash 100 pulses, delay 60 us, integration 400 us, z-height 2 mm. […] IC50s were derived by non-linear regression analysis. […]

Row | Structure (SMILES) | IC50
1 | NC(=O)c1cc(F)c(N[C@@H]2CCOC[C@@H]2N)nc1Nc1cccc(Cl)c1 [Example 386, 6-((3R,4R)-3-aminotetrahydro-2H-pyran-4-ylamino)-2-(3-chlorophenylamino)-5-fluoronicotinamide] | 1 to 10 nM
2 | NC(=O)c1ccc(N[C@@H]2CCCC[C@@H]2N)nc1Nc1cccc(-c2ncccn2)c1 [Example 133, 2-(3-(pyrimidin-2-yl)phenylamino)-6-((1R,2S)-2-aminocyclohexylamino)nicotinamide] | 10 to 100 nM
3 | CC[C@@H](Nc1nc(Nc2csc3ncccc23)c(C(N)=O)cc1F)C(N)=O [Example 423, (R)-6-(1-amino-1-oxobutan-2-ylamino)-5-fluoro-2-(thieno[2,3-b]pyridin-3-ylamino)nicotinamide] | 10 to 100 nM
4 | Cc1cccc(Nc2nc(N[C@@H]3CCOC[C@@H]3N)c(F)cc2C(N)=O)c1 [Example 385, 6-((3R,4R)-3-aminotetrahydro-2H-pyran-4-ylamino)-5-fluoro-2-(m-tolylamino)nicotinamide] | 1 to 10 nM
5 | Cc1cc(Nc2nc(N[C@@H]3CCCC[C@@H]3N)c(F)cc2C(N)=O)cc(C)n1 [Example 86, 6-((1R,2S)-2-aminocyclohexylamino)-2-(2,6-dimethylpyridin-4-ylamino)-5-fluoronicotinamide] | 1 to 10 nM
6 | CC[C@@H](Nc1ccc(C(N)=O)c(Nc2csc3ncccc23)n1)C(N)=O [Example 425, (R)-6-(1-amino-1-oxobutan-2-ylamino)-2-(thieno[2,3-b]pyridin-3-ylamino)nicotinamide] | 10 to 100 nM
7 | Cc1ccc(Nc2nc(N[C@H]3[C@@H](N)CCCC3(F)F)c(F)cc2C(N)=O)cc1 [Example 346] | 10 to 100 nM
8 | NC(=O)c1cc(F)c(N[C@@H]2CCCC[C@@H]2N)nc1Nc1ccc(-n2ccnc2)cc1 [Example 51, 2-(4-(1H-imidazol-1-yl)phenylamino)-6-((1R,2S)-2-aminocyclohexylamino)-5-fluoronicotinamide] | 1 to 10 nM
9 | NC(=O)c1cc(F)c(N[C@@H]2CCCC[C@@H]2N)nc1Nc1cc(F)c[n+]([O-])c1 [Example 408, 3-(6-((1R,2S)-2-aminocyclohexylamino)-3-carbamoyl-5-fluoropyridin-2-ylamino)-5-fluoropyridine 1-oxide] | 100 to 1000 nM
10 | Cc1ccc(Nc2nc(N[C@@H]3CCCC[C@@H]3N)c(F)cc2C(N)=O)cc1F [Example 323] | 1 to 10 nM
11 | Cc1cccc(Nc2nc(N[C@@H]3CCCC(F)(F)[C@@H]3N)c(F)cc2C(N)=O)c1 [Example 335, 6-((1R,2R)-2-amino-3,3-difluorocyclohexylamino)-5-fluoro-2-(m-tolylamino)nicotinamide] | 10 to 100 nM
12 | NC(=O)c1ccc(N[C@@H]2CCCC[C@@H]2N)nc1Nc1ccc2nc(O)sc2c1 [Example 404, 6-((1R,2S)-2-aminocyclohexylamino)-2-(2-hydroxybenzo[d]thiazol-6-ylamino)nicotinamide] | 1 to 10 nM
13 | Cn1ccc2cc(Nc3nc(N[C@@H]4CCCC[C@@H]4N)c(F)cc3C(N)=O)ccc21 [Example 63, 6-((1R,2S)-2-aminocyclohexylamino)-5-fluoro-2-(1-methyl-1H-indol-5-ylamino)nicotinamide] | 1 to 10 nM
14 | CC[C@@H](Nc1ccc(C(N)=O)c(Nc2ccc3ncccc3c2)n1)C(N)=O [Example 205, (R)-6-(1-amino-1-oxobutan-2-ylamino)-2-(quinolin-6-ylamino)nicotinamide] | 1 to 10 nM
15 | Cc1cc(Nc2cc(NC[C@@H](N)CC(C)C)ccc2C(N)=O)sn1 [Example 32, (S)-4-(2-amino-4-methylpentylamino)-2-(3-methylisothiazol-5-ylamino)benzamide] | 100 to 1000 nM
16 | NC(=O)c1cc(F)c(N[C@@H]2CCCC[C@@H]2N)nc1Nc1cccc(-c2cncnc2)c1 [Example 57, 6-((1R,2S)-2-aminocyclohexylamino)-5-fluoro-2-(3-(pyrimidin-5-yl)phenylamino)nicotinamide] | 1 to 10 nM
17 | Cn1cc(Nc2nc(N[C@@H]3CCCC[C@@H]3N)c(F)cc2C(N)=O)cn1 [Example 83, 6-((1R,2S)-2-aminocyclohexylamino)-5-fluoro-2-(1-methyl-1H-pyrazol-4-ylamino)nicotinamide] | 10 to 100 nM

Row | Structure (SMILES) | IC50
18 | NC(=O)c1ccc(N[C@@H]2CCCC[C@@H]2N)nc1Nc1ccncc1 [Example 181, 6-((1R,2S)-2-aminocyclohexylamino)-2-(pyridin-4-ylamino)nicotinamide] | 1 to 10 nM
19 | N#Cc1cc(C(N)=O)c(Nc2ccc(-n3cccn3)cc2)nc1N[C@@H]1CCCC[C@@H]1N [Example 121, 2-(4-(1H-pyrazol-1-yephenylamino)-6-(1R,2S)-2-aminocyclohexylamino)-5-cyanonicotinamide] | 10 to 100 nM
20 | Cc1ccc(Nc2nc(N[C@@H]3CCCC(F)(F)[C@@H]3N)c(F)cc2C(N)=O)cc1 [Example 334, 6-((1R,2R)-2-amino-3,3-difluorocyclohexylamino)-5-fluoro-2-(p-tolylamino)nicotinamide] | 100 to 1000 nM
21 | Cc1ccc(Nc2nc(N[C@@H]3CCCC[C@@H]3N)c(F)cc2C(N)=O)cc1 [Example 315, 6-((1R,2S)-2-aminocyclohexylamino)-5-fluoro-2-(p-tolylamino)nicotinamide] | 1 to 10 nM
22 | N#Cc1cc(C(N)=O)c(Nc2cccc(-c3ccccn3)c2)nc1N[C@@H]1CCCC[C@@H]1N [Example 131, 6-((1R,2S)-2-aminocyclohexylamino)-5-cyano-2-(3-(pyridin-2-yl)phenylamino)nicotinamide] | 1 to 10 nM
23 | Cc1cccc(Nc2nc(N[C@@H]3CCCC[C@@H]3N)c(C#N)cc2C(N)=O)c1 [Example 107, 6-((1R,2S)-2-aminocyclohexylamino)-5-cyano 2-(m-tolylamino)nicotinamide] | 1 to 10 nM
24 | Cc1cc(Nc2cc(N[C@H](Cc3ccncc3)C(N)=O)c(F)cc2C(N)=O)sn1 [Example 38, (R)-4-(1-amino-1-oxo-3-(pyridin-4-yl)propan-2-ylamino)-5-fluoro-2-(3-methylisothiazol-5-ylamino)benzamide] | 100 to 1000 nM
25 | NC(=O)c1ccc(N[C@@H]2CCCC[C@@H]2N)nc1Nc1cnc2ccncc2c1 [Example 406, 2-(1,6-naphthyridin-3-ylamino)-6-((1R,2S)-2-aminocyclohexylamino)nicotinamide] | 10 to 100 nM
26 | NC(=O)c1cc(F)c(N[C@@H]2CCCC[C@@H]2N)nc1Nc1ccc2cccnc2c1 [Example 69, 6-((1R,2S)-2-aminocyclohexylamino)-5-fluoro-2-(quinolin-7-ylamino)nicotinamide] | 1 to 10 nM
27 | CC(C)C[C@@H](Nc1nc(Nc2ccc(F)c(Cl)c2)c(C(N)=O)cc1F)C(N)=O [Example 266, (R)-6-(1-amino-4-methyl-1-oxopentan-2-ylamino)-5-fluoro-2-(3-chloro-4-fluorophenylamino)nicotinamide] | 10 to 100 nM
28 | Cc1cccc(Nc2cc(N[C@@H]3CCCC[C@@H]3N)ccc2C(N)=O)c1 [Example 1, 4-((1R,2S)-2-aminocyclohexylamino)-2-(m-tolylamino)benzamide] | > 1000 nM
29 | NC(=O)c1cc(F)c(NC2(C(N)=O)CCCC2)nc1Nc1cnc2ccccc2c1 [Example 376, 6-(1-carbamoylcyclopentylamino)-5-fluoro-2-(quinolin-3-ylamino)nicotinamide] | 100 to 1000 nM
30 | NC(=O)c1ccc(N[C@@H]2CCCC[C@@H]2N)nc1Nc1cncc(-n2cccn2)c1 [Example 159, 2-(5-(1H-pyrazol-1-yl)pyridin-3-ylamino)-6-((1R,2S)-2-aminocyclohexylamino)nicotinamide] | 1 to 10 nM
31 | NC(=O)c1cc(F)c(N[C@@H]2CCCC[C@@H]2N)nc1Nc1ccc(C(F)(F)F)nc1 [Example 176, 6-((1R,2S)-2-aminocyclohexylamino)-5-fluoro-2-(6-(trifluoromethyl)pyridin-3-ylamino)nicotinamide] | 10 to 100 nM
32 | NC(=O)c1cc(F)c(N[C@@H]2CCCC(F)(F)[C@@H]2N)nc1Nc1cccc2ncsc12 [Example 329, 6-((1R,2R)-2-amino-3,3-difluorocyclohexylamino)-2-(benzo[d]thiazol-7-ylamino)-5-fluoronicotinamide] | 100 to 1000 nM
33 | NC(=O)c1ccc(N[C@@H]2CCCC[C@@H]2N)nc1Nc1cnc2cccnc2c1 [Example 184] | 1 to 10 nM
